Measured values as given in EP3262942A1, “SELENODIARYLS FOR USE AS MICROBICIDE OR AS MEDICINE” (Evonik Degussa GmbH, priority 2016, dated 2018).

What was measured:
[1] = test system: Penicillium notatum; test: Growth test in microtiter plates, HA medium, 24 h, visual evaluation; type: cell-based; design: key: +: kein Wachstum im Vergleich zur Wachstumskontrolle; -: Wachstum wie Wachstumskontrolle
[2] = test system: M. grisea H2O; test: microbe, parasite or virus in culture; type: cell-based, Magnaporthe grisea; settings: Pyricularia grisea, H2O, 24 h, read-out: Aktivität gegenüber M. grisea H2O
[3] = test system: P. infestans; test: microbe, parasite or virus in culture; type: cell-based, Phytophthora infestans; settings: Phytophthora infestans, 24 h, read-out: Aktivität gegenüber P. infestans
[4] = test system: Lepidium sativum; test: Crop plant growth test, seeds on filter discs, 4 days, visual evaluation; type: in vivo
In short: (§1)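 Compounds dried from DMSO onto filter discs; about 12 seeds per well with 200 µl sterile tap water, incubated 4 days in a humid chamber under 16 h light/8 h dark. Visual scoring: + means at least 75 % growth inhibition versus control, − means less than 75 %.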

[5] = test system: Setaria italica; test: as above; type: in vivo
In short: as §1

[6] = test system: Botrytis cinerea; test: microbe, parasite or virus in culture; type: cell-based; settings: Botrytis cinerea, 24 h, read-out: Aktivität gegenüber B. cinerea
[7] = test system: M. grisea CM; test: microbe, parasite or virus in culture; type: cell-based, Magnaporthe grisea; settings: Pyricularia grisea, 24 h, read-out: Aktivität gegenüber M. grisea CM
[8] = test system: Paecilomyces variotii; test: Growth test in microtiter plates, HA medium, 24 h, visual evaluation; type: cell-based; design: key: +: kein Wachstum im Vergleich zur Wachstumskontrolle; -: Wachstum wie Wachstumskontrolle
[9] = test system: Candida albicans; test: as above; type: cell-based; design: key: +: kein Wachstum im Vergleich zur Wachstumskontrolle; -: Wachstum wie Wachstumskontrolle
[10] = test system: M. grisea; type: cell-based, Magnaporthe grisea; settings: medium (H2O or CM) not stated
[11] = test system: Mucor miehei; test: Growth test in microtiter plates, HA medium, 24 h, visual evaluation; type: cell-based; design: key to Aktivität gegenüber M. miehei: +: kein Wachstum im Vergleich zur Wachstumskontrolle; -: Wachstum wie Wachstumskontrolle
[12] = test system: alle getesteten Pathogene; type: cell-based; settings: 5-50 µg/mL

Row | Structure (SMILES) | Aktivität gegenüber P. notatum ([1]; 10µg/mL) | Aktivität gegenüber P. notatum ([1]; 50µg/mL) | inhibition of growth at 5 µg/mL [2] [%] | inhibition of growth at 10 µg/mL [2] [%] | inhibition of growth at 25 µg/mL [2] [%] | inhibition of growth at 50 µg/mL [2] [%] | inhibition of growth at 5 µg/mL [3] [%] | inhibition of growth at 10 µg/mL [3] [%] | inhibition of growth at 25 µg/mL [3] [%] | inhibition of growth at 50 µg/mL [3] [%] | Aktivität gegenüber Nutzpflanzen: L. sativum ([4]; 10µg/R) | Aktivität gegenüber Nutzpflanzen: L. sativum ([4]; 20µg/R) | Aktivität gegenüber Nutzpflanzen: L. sativum ([4]; 50µg/R) | Aktivität gegenüber Nutzpflanzen: S. italica ([5]; 10µg/R) | Aktivität gegenüber Nutzpflanzen: S. italica ([5]; 20µg/R) | Aktivität gegenüber Nutzpflanzen: S. italica ([5]; 50µg/R) | inhibition of growth at 5 µg/mL [6] [%] | inhibition of growth at 10 µg/mL [6] [%] | inhibition of growth at 25 µg/mL [6] [%] | inhibition of growth at 50 µg/mL [6] [%] | other results
1 | Cc1cc(C)c(O)c([Se]c2cc(C)cc(C)c2O)c1 [Verbindung 12, Bis(3,5-dimethyl-2-hydroxyphenyl)selen] | - | - | 0 to 25 | 0 to 25 | 0 to 25 | 0 to 25 | 0 to 25 | > 75 | > 75 | > 75 | - (weniger als 75 % Wachstumshemmung im Vergleich zur Kontrolle) | - (weniger als 75 % Wachstumshemmung im Vergleich zur Kontrolle) | - (weniger als 75 % Wachstumshemmung im Vergleich zur Kontrolle) | - (weniger als 75 % Wachstumshemmung im Vergleich zur Kontrolle) | - (weniger als 75 % Wachstumshemmung im Vergleich zur Kontrolle) | - (weniger als 75 % Wachstumshemmung im Vergleich zur Kontrolle) | 0 to 25 | 0 to 25 | 0 to 25 | 0 to 25 | inhibition of growth at 5 µg/mL [7]: > 75%; inhibition of growth at 10 µg/mL [7]: > 75%; inhibition of growth at 25 µg/mL [7]: > 75%; inhibition of growth at 50 µg/mL [7]: > 75%; Aktivität gegenüber P. variotii ([8]; 10µg/mL): -; Aktivität gegenüber P. variotii ([8]; 50µg/mL): -; Aktivität gegenüber C. albicans ([9]; 10µg/mL): -; Aktivität gegenüber C. albicans ([9]; 50µg/mL): -; Aktivität gegenüber M. grisea [10]: hohe Aktivität; Aktivität gegenüber M. miehei ([11]; 10µg/mL): -; Aktivität gegenüber M. miehei ([11]; 50µg/mL): -
2 | Cc1cc(C(C)(C)C)cc([Se]c2cc(C(C)(C)C)cc(C)c2O)c1O [Verbindung 13, Di(5-tert-butyl-2-hydroxy-3-methylphenyl)selen] | - | - | > 75 | > 75 | > 75 | > 75 | 0 to 25 | 0 to 25 | 0 to 25 | 0 to 25 | - (weniger als 75 % Wachstumshemmung im Vergleich zur Kontrolle) | - (weniger als 75 % Wachstumshemmung im Vergleich zur Kontrolle) | - (weniger als 75 % Wachstumshemmung im Vergleich zur Kontrolle) | - (weniger als 75 % Wachstumshemmung im Vergleich zur Kontrolle) | - (weniger als 75 % Wachstumshemmung im Vergleich zur Kontrolle) | - (weniger als 75 % Wachstumshemmung im Vergleich zur Kontrolle) | 0 to 25 | 0 to 25 | 0 to 25 | 0 to 25 | inhibition of growth at 5 µg/mL [7]: > 75%; inhibition of growth at 10 µg/mL [7]: > 75%; inhibition of growth at 25 µg/mL [7]: > 75%; inhibition of growth at 50 µg/mL [7]: > 75%; Aktivität gegenüber P. variotii ([8]; 10µg/mL): -; Aktivität gegenüber P. variotii ([8]; 50µg/mL): -; Aktivität gegenüber C. albicans ([9]; 10µg/mL): -; Aktivität gegenüber C. albicans ([9]; 50µg/mL): -; Aktivität gegenüber M. grisea [10]: hohe Aktivität; Aktivität gegenüber M. miehei ([11]; 10µg/mL): -; Aktivität gegenüber M. miehei ([11]; 50µg/mL): -
3 | COc1cc(C)cc([Se]c2cc(C)cc(OC)c2O)c1O [Verbindung 20, Bis(2-hydroxy-3-methoxy-5-methylphenyl)selen] | - | - | 25 to 50 | > 75 | > 75 | > 75 | 0 to 25 | 0 to 25 | > 75 | > 75 | - (weniger als 75 % Wachstumshemmung im Vergleich zur Kontrolle) | - (weniger als 75 % Wachstumshemmung im Vergleich zur Kontrolle) | - (weniger als 75 % Wachstumshemmung im Vergleich zur Kontrolle) | - (weniger als 75 % Wachstumshemmung im Vergleich zur Kontrolle) | - (weniger als 75 % Wachstumshemmung im Vergleich zur Kontrolle) | - (weniger als 75 % Wachstumshemmung im Vergleich zur Kontrolle) | 0 to 25 | 0 to 25 | 0 to 25 | 0 to 25 | Aktivität im Wachstums- und Keimungshemmungstest gegen die getesteten Pathogene [12]: fungizider Effekt; inhibition of growth at 5 µg/mL [7]: 25 to 50%; inhibition of growth at 10 µg/mL [7]: > 75%; inhibition of growth at 25 µg/mL [7]: > 75%; inhibition of growth at 50 µg/mL [7]: > 75%; Aktivität gegenüber P. variotii ([8]; 10µg/mL): -; Aktivität gegenüber P. variotii ([8]; 50µg/mL): -; Aktivität gegenüber C. albicans ([9]; 10µg/mL): -; Aktivität gegenüber C. albicans ([9]; 50µg/mL): -; Aktivität gegenüber M. miehei ([11]; 10µg/mL): -; Aktivität gegenüber M. miehei ([11]; 50µg/mL): -
